The values below come from US10952963B2, “Ready to use liquid RECK formulation” (QuVa Pharma, Inc., priority 2018, dated 2021).

A value given as a limit tells only on which side of the number the result lay.

The conditions of the data set: for pH that provides for acceptable stability: pH 4.8. The method, then: Multiple antioxidants, chelating agents, and buffers were evaluated to stabilize both epinephrine and ketorolac, which include: sodium bisulfite, sodium metabisulfite, EDTA Sodium Dihydrate (i.e., EDTA Sodium), citric acid, sodium phosphate dibasic, and PEG 400. Solution pH values were evaluated from a pH of 3.9-6.0.

`Clc1cccc(Cl)c1N=C1NCCN1` [clonidine]: the “pH range of maximum stability” value is on record as 3-4.

For the compound `CNC[C@H](O)c1ccc(O)c(O)c1` [epinephrine], the “pH at which substantial degradation occurs” value is listed as “greater than 4”, the “pH range of maximum stability” value is given as 3-4 and the “pH that provides for acceptable stability” value was “about 4.8”.

In the case of `O=C(c1ccccc1)c1ccc2n1CCC2C(=O)O` (stereo not shown) [ketorolac], the “pH at which rate of degradation increases” value is given as “less than 5”, the “pH at which substance tended to degrade” value is “less than 4.5”, the “pH range of maximum stability” value was 6-7 and the “sodium metabisulfite concentration in the presence of which the substance degrades substantially” value was ≥ 1 mg/mL. For the same compound, the “pH that provides for acceptable stability” value was “about 4.8”.

For `CCCN1CCCC[C@H]1C(=O)Nc1c(C)cccc1C` [ropivacaine], the “pH range of maximum stability” value is 3-4.
